Structures can show the parent of a compound that is named as a salt.
Tests used:
Experiment in all cases: biochemical
[1] = target: T1, dopamine (DA) reuptake in synaptosomes (Rattus norvegicus, UniProt P23977)
T1 construct: in synaptosomes as described in WO 97/16451; from tissue

[2] = target: T2, noradrenaline (NA) reuptake in synaptosomes (Rattus norvegicus, UniProt Q63380)
T2 construct: in synaptosomes as described in WO 97/16451; from tissue

[3] = target: T3, serotonine (5-HT) reuptake in synaptosomes (Rattus norvegicus, UniProt P31652)
T3 construct: in synaptosomes as described in WO 97/16451; from tissue
T3 sequence (P31652 whole entry): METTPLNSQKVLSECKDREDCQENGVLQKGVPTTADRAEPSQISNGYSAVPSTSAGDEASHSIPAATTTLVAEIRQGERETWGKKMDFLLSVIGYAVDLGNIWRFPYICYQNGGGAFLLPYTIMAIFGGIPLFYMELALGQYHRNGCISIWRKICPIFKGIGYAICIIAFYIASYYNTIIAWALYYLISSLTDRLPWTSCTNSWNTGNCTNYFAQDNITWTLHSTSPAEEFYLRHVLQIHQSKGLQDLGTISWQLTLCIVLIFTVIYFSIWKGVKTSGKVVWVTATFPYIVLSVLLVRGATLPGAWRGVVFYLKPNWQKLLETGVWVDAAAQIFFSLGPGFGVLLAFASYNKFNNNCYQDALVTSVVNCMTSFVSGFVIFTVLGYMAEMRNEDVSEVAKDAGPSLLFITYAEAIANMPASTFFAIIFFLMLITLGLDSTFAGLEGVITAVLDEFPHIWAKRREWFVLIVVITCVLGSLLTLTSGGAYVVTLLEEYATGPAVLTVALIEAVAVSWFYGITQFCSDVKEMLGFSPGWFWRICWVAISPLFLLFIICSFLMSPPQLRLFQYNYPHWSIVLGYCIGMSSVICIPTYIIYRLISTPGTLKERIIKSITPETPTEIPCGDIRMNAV

T1 sequence (P23977 whole entry): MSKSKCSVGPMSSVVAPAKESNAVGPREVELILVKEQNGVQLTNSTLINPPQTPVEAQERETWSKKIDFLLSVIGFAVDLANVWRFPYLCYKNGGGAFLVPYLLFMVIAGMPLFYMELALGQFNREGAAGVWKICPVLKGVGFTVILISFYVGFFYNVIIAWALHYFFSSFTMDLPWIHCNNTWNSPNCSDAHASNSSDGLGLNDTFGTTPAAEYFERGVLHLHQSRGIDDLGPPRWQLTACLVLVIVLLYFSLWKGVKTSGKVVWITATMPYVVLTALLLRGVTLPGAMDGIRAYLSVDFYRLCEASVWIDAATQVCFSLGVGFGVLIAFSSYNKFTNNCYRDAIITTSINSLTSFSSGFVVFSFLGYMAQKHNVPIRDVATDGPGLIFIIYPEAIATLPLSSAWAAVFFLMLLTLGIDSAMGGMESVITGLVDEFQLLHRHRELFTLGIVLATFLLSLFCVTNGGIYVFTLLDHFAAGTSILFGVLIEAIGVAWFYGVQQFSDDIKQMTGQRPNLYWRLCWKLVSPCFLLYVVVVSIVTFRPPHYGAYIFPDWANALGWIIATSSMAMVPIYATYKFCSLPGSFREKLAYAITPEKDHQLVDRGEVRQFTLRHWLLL
T2 sequence (Q63380 1-617): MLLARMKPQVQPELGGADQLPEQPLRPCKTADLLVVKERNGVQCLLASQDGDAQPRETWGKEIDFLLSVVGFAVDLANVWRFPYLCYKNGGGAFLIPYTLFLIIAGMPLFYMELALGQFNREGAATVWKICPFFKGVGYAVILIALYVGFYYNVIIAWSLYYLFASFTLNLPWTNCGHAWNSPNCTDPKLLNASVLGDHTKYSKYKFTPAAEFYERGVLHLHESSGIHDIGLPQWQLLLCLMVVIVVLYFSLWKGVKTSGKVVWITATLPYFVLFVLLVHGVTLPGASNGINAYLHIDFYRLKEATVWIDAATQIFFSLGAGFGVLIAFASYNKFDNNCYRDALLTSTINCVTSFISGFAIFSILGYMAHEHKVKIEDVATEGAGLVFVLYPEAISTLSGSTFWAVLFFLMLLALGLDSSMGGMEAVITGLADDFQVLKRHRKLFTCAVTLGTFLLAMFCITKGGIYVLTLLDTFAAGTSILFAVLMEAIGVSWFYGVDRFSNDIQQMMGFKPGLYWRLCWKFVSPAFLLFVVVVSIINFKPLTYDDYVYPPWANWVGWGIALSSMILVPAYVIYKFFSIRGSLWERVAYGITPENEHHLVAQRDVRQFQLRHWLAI

CCC(=O)N(CC1CCN(CCc2ccc(F)cc2)CC1)c1ccccc1 [Compound 12j, N-{1-[2-(4-Fluoro-phenyl)-ethyl]-piperidin-4-ylmethyl}-N-phenyl-propionamide fumaric acid salt]
IC50 [1]: 480 nM
IC50 [2]: 280 nM
IC50 [3]: 5500 nM

— US20100234427A1 (priority 2006, published 2010)
